Experimental data published in patent US7649013B2, “Methods of protecting against radiation injury” (priority 2003, dated 2010).
Entries after “also recorded” stand apart in the source; their conditions may differ.

Tests used:
[1] = test system: C57BL/6J inbred strain female mice; test: Histologic spleen cellularity after whole body irradiation, hematoxylin-eosin sections (Example 7c); format: in vivo; settings: 40 mg/kg i.p. 0.5 hour before 5 Gy (nonlethal); five days after irradiation
Protocol: Spleen cellularity is qualitatively assessed following whole body gamma irradiation in mice, with and without pretreatment with β-lapachone, as follows. β-lapachone is prepared at 10 mg/ml in 40% hydroxypropyl-beta-cyclodextrin (HPBCD). C57BL/6J inbred strain female mice (4-5 weeks old) are organized into three groups of six mice each: Group I mice receive no radiation, no β-lapachone, and no carrier; Group II mice receive radiation and are injected with carrier (40% HPBCD 4 ml/kg body weight); and Group III mice are injected intraperitoneally at 0.5 hour before irradiation with β-lapachone (40 mg/kg body weight). Whole body irradiation of animals with 8 Gy (lethal radiation) or 5 Gy (sublethal radiation) of γ-rays is carried out in air at room temperature in a gamma chamber (Gammacell 40 Exactor), with a dose-rate of 1.05 Gy/min. This radiation dose is within the range of equivalent human exposures predicted in many scenarios of radiologic or nuclear terrorist attack. Following irradiation, animals are maintained in a climate-controlled animal facility. Three mice in each of Groups I, II, and III are sacrificed on day five following irradiation, and an analysis of splenic cellularity is performed for each. […] Splenic cellularity is qualitatively assessed in sections stained with hematoxylin-eosin following standard procedures.

[2] = test system: E2F1 in normal colon cells (NCM460); test: E2F1 level in whole cell extracts, SDS/PAGE and enhanced chemiluminescence, normal colon cells; format: cell-based, human; settings: NCM460, 2 μM, 20 minute to 4 hour exposures
Protocol: Human colon cancer cells (SW480) and normal colon cells (NCM460) are treated with β-lapachone at a concentration of 2 μM and are harvested after 20 minute, 1 hour, 2 hour, or 4 hour exposures. Whole cell extracts are prepared and resolved by SDS/PAGE. An enhanced chemiluminescence assay system (Amersham Pharmacia) is used to determine the E2F1 level. Monoclonal antibody against […] is obtained from Santa Cruz Biotechnology (Santa Cruz, Calif.). […] Elevation of E2F1 following exposure to β-lapachone persists through cell death in cancer cells.

[3] = test system: C57BL/6J inbred strain female mice; test: Radiation-induced leukopenia after whole body irradiation, leukocyte count (Example 8); format: in vivo; settings: for L % (percentage of lymphocytes) / M % (percentage of monocytes) / N % (percentage of neutrophils) / WBC: 40 mg/kg i.p. 0.5 hour before 8 Gy
Protocol: The effect of β-lapachone pre-treatment on radiation-induced leukopenia (e.g., radiation-induced neutropenia, monocytopenia, or lymphocytopenia, or subcombinations thereof) following whole body gamma irradiation in mice, with and without pretreatment with β-lapachone, is assessed as follows. β-lapachone is prepared at 10 mg/ml in 40% hydroxypropyl-beta-cyclodextrin (HPBCD). C57BL/6J inbred strain female mice (4-5 weeks old) are organized into three groups of six mice each: Group I mice receive no radiation, no β-lapachone, and no carrier; Group II mice receive radiation and are injected with carrier (40% HPBCD 4 ml/kg body weight); and Group III mice are injected intraperitoneally at 0.5 hour before irradiation with β-lapachone (40 mg/kg body weight). Whole body irradiation of animals with 8 Gy (lethal radiation) or 5 Gy (sublethal radiation) of γ-rays is carried out in air at room temperature in a gamma chamber (Gammacell 40 Exactor), with a dose-rate of 1.05 Gy/min. This radiation dose is within the range of equivalent human exposures predicted in many scenarios of radiologic or nuclear terrorist attack. Following irradiation, animals are maintained in a climate-controlled animal facility. Three mice in each of Groups I, II, and III are sacrificed on day five following irradiation, and an analysis of radiation-induced leukopenia is performed for each. The remaining mice are sacrificed on day eight following irradiation, and an analysis of radiation-induced leukopenia is performed for each. Leukocytes are counted automatically using a hemacytometer counter in the animal facility at MIT.

[4] = test system: Chk2 in human cervical cancer cells (HeLa); test: Chk2 phosphorylation by immunoblotting of whole cell lysates; format: cell-based; settings: 4 μM
Protocol: Human cervical cancer cells (HeLa) are treated with 4 μM β-lapachone for 0, 3, 10, 30, 60 and 120 minutes. Whole cell lysates are prepared, separated by SDS-PAGE, and analyzed by immunoblotting with anti-Chk2 and anti-phosphorylated-Chk2 antibodies.

[5] = test system: C57BL/6J inbred strain female mice; test: Quantitative spleen cellularity after whole body irradiation, trypan blue exclusion count (Example 7b); format: in vivo; settings: 40 mg/kg i.p. 0.5 hour before 8 Gy; day five and eight; P=0.00035
Protocol: Spleen cellularity is quantitatively assessed following whole body gamma irradiation in mice, with and without pretreatment with β-lapachone, as follows. β-lapachone is prepared at 10 mg/ml in 40% hydroxypropyl-beta-cyclodextrin (HPBCD). C57BL/6J inbred strain female mice (4-5 weeks old) are organized into three groups of six mice each: Group I mice receive no radiation, no β-lapachone, and no carrier; Group II mice receive radiation and are injected with carrier (40% HPBCD 4 ml/kg body weight); and Group III mice are injected intraperitoneally at 0.5 hour before irradiation with β-lapachone (40 mg/kg body weight). […] Three mice in each of Groups I, II, and III are sacrificed on day five following irradiation, and a quantitative analysis of splenic cellularity is performed for each. The remaining mice are sacrificed on day eight following irradiation, and a quantitative analysis of splenic cellularity is performed for each.
For quantitative analysis for splenic cellularity, spleens are processed into single cell suspensions and erythrocytes are lysed in 2 ml lysis buffer (0.01 M KHCO3, 0.154 M NH4Cl, 0.01 mM EDTA). The remaining leukocytes are washed, suspended and counted in a hemacytometer using the trypan blue exclusion method.

CC1(C)CCC2=C(O1)c1ccccc1C(=O)C2=O [β-lapachone, 3,4-dihydro-2,2-dimethyl-2H-naphtho[1,2-b]pyran-5,6-dione]
Spleen structure and cellularity judged histologically (FIG. 10) [1]: protective effect on spleen structure and cellularity
E2F1 level [2]: not in similarly treated normal human colon cells
L % (percentage of lymphocytes) ([3]; Day 5): 66.24%
M % (percentage of monocytes) ([3]; Day 5): 8.13%
N % (percentage of neutrophils) ([3]; Day 5): 19.1%
WBC ([3]; Day 5): 0.53 ± 0.4 1000 cells/ml
L % (percentage of lymphocytes) ([3]; Day 8): 52.69%
M % (percentage of monocytes) ([3]; Day 8): 13.23%
N % (percentage of neutrophils) ([3]; Day 8): 20.29%
WBC ([3]; Day 8): 0.37 ± 0.24 1000 cells/ml
Protection against radiation-induced neutropenia, monocytopenia, and lymphocytopenia ([3]; pretreatment, 8 Gy, day 5 and day 8, P<0.05): partially protects
Time at which phosphorylated Chk2 levels appear [4]: 10 min
Phosphorylated Chk2 (p-Chk2) level / proportion of phosphorylated Chk2 ([4]; 0-120 minutes): induces an increase in the proportion of phosphorylated Chk2; also recorded: sustained increase
Total amount of Chk2 within the cells ([4]; 0-120 minutes): remains unchanged
Splenic cellularity, quantitative (FIG. 9) [5]: significantly preserved cellularity
